Test results as given in ChEMBL document CHEMBL3044932, “In vitro cytotoxicity evaluation of diversely substituted N-aryl-2-oxindoles” (2013).
In brackets after ≈: the same amount, converted by molar mass.

How the values were obtained:
Assay type in all cases: functional
KB = assay: Cytotoxicity against Homo sapiens (human) KB cells after 72 hr by MTT assay; settings: read-out: ED50 (the source's name)
B16-F10 = assay: Cytotoxicity against Homo sapiens (human) B16F10 cells after 72 hr by MTT assay; settings: Mus musculus, B16-F10, 72 h; read-out: ED50 (the source's name)
L132 = assay: Cytotoxicity against Homo sapiens (human) L-132 cells after 72 hr by MTT assay; settings: L132, 72 h, read-out: ED50 (the source's name)
MIA PaCa-2 = assay: Cytotoxicity against Homo sapiens (human) MIAPaCa2 cells after 72 hr by MTT assay; settings: MIA PaCa-2, 72 h, read-out: ED50 (the source's name)
MCF7 = assay: Cytotoxicity against Homo sapiens (human) MCF7 cells after 72 hr by MTT assay; settings: MCF7, 72 h, read-out: ED50 (the source's name)
HuTu80 = assay: Cytotoxicity against Homo sapiens (human) HuTu 80 cells after 72 hr by MTT assay; settings: HuTu80, 72 h, read-out: ED50 (the source's name)
MOLT-4 = assay: Cytotoxicity against Homo sapiens (human) MOLT4 cells after 72 hr by MTT assay; settings: MOLT-4, 72 h, read-out: ED50 (the source's name)

Row | SMILES | EC50 (KB) [mg/L] | EC50 (B16-F10) [mg/L] | EC50 (L132) [mg/L] | EC50 (MIA PaCa-2) [mg/L] | EC50 (MCF7) [mg/L] | EC50 (HuTu80) [mg/L] | EC50 (MOLT-4) [mg/L]
1 | O=C1/C(=C\c2ccco2)c2ccccc2N1c1c(Cl)cccc1Cl | 5 (≈ 14 µM) | > 100 | > 100 | 10 (≈ 28.1 µM) | > 100 | 18 (≈ 50.5 µM) | 
2 | O=C1/C(=C\c2ccc(O)cc2)c2ccccc2N1c1c(Cl)cccc1Cl | 2 (≈ 5.23 µM) | 33 (≈ 86.3 µM) | 30 (≈ 78.5 µM) | 2 (≈ 5.23 µM) | 20 (≈ 52.3 µM) | 25 (≈ 65.4 µM) | 
3 | O=C1/C(=C\c2cc3ccccc3nc2Cl)c2ccccc2N1c1c(Cl)cccc1Cl | 10 (≈ 22.1 µM) |  |  | 5 (≈ 11.1 µM) | > 100 |  | 
4 | O=C1/C(=C\c2ccc(F)cc2)c2ccccc2N1c1c(Cl)cccc1Cl | 5 (≈ 13 µM) | 38 (≈ 98.9 µM) | 13 (≈ 33.8 µM) | 5 (≈ 13 µM) | 9 (≈ 23.4 µM) | 8 (≈ 20.8 µM) | 
5 | O=C1/C(=C\c2ccccc2)c2ccccc2N1c1c(Cl)cccc1Cl | 10 (≈ 27.3 µM) | 9 (≈ 24.6 µM) | > 100 | > 100 | 10 (≈ 27.3 µM) | 8 (≈ 21.8 µM) | 7 (≈ 19.1 µM)
6 | O=C1/C(=C\c2cccc(Br)c2)c2ccccc2N1c1c(Cl)cccc1Cl | 2 (≈ 4.49 µM) | 8 (≈ 18 µM) | 19 (≈ 42.7 µM) | 5 (≈ 11.2 µM) | 5 (≈ 11.2 µM) | 7 (≈ 15.7 µM) | 7 (≈ 15.7 µM)
7 | O=C1/C(=C\c2c(Cl)cccc2Cl)c2ccccc2N1c1c(Cl)cccc1Cl | 50 (≈ 115 µM) | > 100 | > 100 | > 100 | > 100 | 100 (≈ 230 µM) | 
8 | O=C1/C(=C\c2cccc(Oc3ccccc3)c2)c2ccccc2N1c1c(Cl)cccc1Cl | 5 (≈ 10.9 µM) | > 100 | 24 (≈ 52.4 µM) | > 100 | 100 (≈ 218 µM) | 10 (≈ 21.8 µM) | 6 (≈ 13.1 µM)
9 | O=C1/C(=C\c2cccc(Cl)c2)c2ccccc2N1c1c(Cl)cccc1Cl | 2 (≈ 4.99 µM) | 8 (≈ 20 µM) | 16 (≈ 39.9 µM) | 5 (≈ 12.5 µM) |  | 7 (≈ 17.5 µM) | 6 (≈ 15 µM)
10 | O=C1/C(=C\c2ccccc2Cl)c2ccccc2N1c1c(Cl)cccc1Cl | 5 (≈ 12.5 µM) | 39 (≈ 97.3 µM) | > 100 | > 100 | 9 (≈ 22.5 µM) | > 100 | 7 (≈ 17.5 µM)
11 | Cc1ccc2nc(Cl)c(/C=C3\C(=O)N(c4c(Cl)cccc4Cl)c4ccccc43)cc2c1C | 10 (≈ 20.8 µM) | > 100 | 98 (≈ 204 µM) |  | > 100 | < 1 | 
12 | O=C1Cc2ccccc2N1c1c(Cl)cccc1Cl | 100 (≈ 360 µM) | > 100 | > 100 | > 100 | > 100 | > 100 | 
13 | COc1ccc(/C=C2\C(=O)N(c3c(Cl)cccc3Cl)c3ccccc32)cc1 | > 100 | > 100 | > 100 | > 100 | > 100 | > 100 | 
14 | O=C1/C(=C\c2cccc3ccccc23)c2ccccc2N1c1c(Cl)cccc1Cl | > 100 | > 100 | > 100 | > 100 | > 100 | 10 (≈ 24 µM) | 
15 | COc1ccc(/C=C2\C(=O)N(c3c(Cl)cccc3Cl)c3ccccc32)cc1OC | 10 (≈ 23.5 µM) | > 100 | > 100 | 5 (≈ 11.7 µM) | 10 (≈ 23.5 µM) | < 1 | 
16 | O=C1/C(=C\c2ccccc2[N+](=O)[O-])c2ccccc2N1c1c(Cl)cccc1Cl | 1 (≈ 2.43 µM) | > 100 | 10 (≈ 24.3 µM) | 5 (≈ 12.2 µM) |  | 10 (≈ 24.3 µM) | 6 (≈ 14.6 µM)
17 | Cc1ccc2nc(Cl)c(/C=C3\C(=O)N(c4c(Cl)cccc4Cl)c4ccccc43)cc2c1 | 100 (≈ 215 µM) |  |  |  | > 100 |  | 
18 | CN(C)c1ccc(/C=C2\C(=O)N(c3c(Cl)cccc3Cl)c3ccccc32)cc1 | 15 (≈ 36.6 µM) | > 100 | > 100 | > 100 | > 100 | < 1 | 
19 | O=C1/C(=C\c2ccc(Cl)cc2)c2ccccc2N1c1c(Cl)cccc1Cl | 2 (≈ 4.99 µM) | > 100 | 9 (≈ 22.5 µM) | 5 (≈ 12.5 µM) | 5 (≈ 12.5 µM) | 6 (≈ 15 µM) | 
